According to patent US20120282710A1, “LIGAND BINDING DOMAINS OF NUCLEAR RECEPTORS IN CONTROLLABLE FORM AND METHODS INVOLVING THE SAME” (SANOFI, priority 2007, published 2012):
Counter-ions that a name gives are not always drawn.

Experiments:
[1] = target: T1, RORαLBD protein (Homo sapiens, UniProt P35398); assay: co-factor recruitment fluorescence resonance energy transfer assay (FRET), Example 1; assay type: biochemical; details: for co-factor recruitment (fluorescence ratios at 665 nm and 612 nm): time resolved measurement, 20 nM RORαLBD, 400 nM biotin-labeled peptide, 2 hrs
T1 construct: made in house; host or cells: Sf9 insect cells (baculovirus, pVL1393)
T1 sequence (P35398 with tags, fused parts or gaps): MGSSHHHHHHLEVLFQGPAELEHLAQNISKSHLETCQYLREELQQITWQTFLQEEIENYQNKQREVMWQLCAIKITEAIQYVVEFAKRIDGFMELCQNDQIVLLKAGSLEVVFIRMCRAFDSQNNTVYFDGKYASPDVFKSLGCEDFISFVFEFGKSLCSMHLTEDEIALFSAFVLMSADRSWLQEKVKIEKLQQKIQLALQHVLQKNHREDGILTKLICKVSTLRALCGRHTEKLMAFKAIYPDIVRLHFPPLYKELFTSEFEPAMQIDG
Procedure: 20 nM RORαLBD protein labeled with equimolar amounts of fluorescent anti-6×His antibody were incubated with 400 nM of the respective biotin-labeled peptide and equimolar amounts of a streptavidin-tagged fluorophore in a buffer containing 50 mM Tris, 100 mM NaCl, 1 mM DTT and 0.1% BSA for 2 hrs.

[2] = target: T2, 6×His-RORalphaLBD protein (Homo sapiens, UniProt P35398); assay: TR-FRET assay measuring RORalphaLBD interaction with the LXXLL peptide SRC1−NR1+2, Example 2; assay type: biochemical; details: for binding of co-activator peptide SRC1−NR1+2 to RORα (increase in fluorescence intensity ratio): FIG. 2, increasing concentrations versus solvent only
T2 construct: made in house; host or cells: Sf9 insect cells (baculovirus, pVL1393)
T2 sequence (P35398 with tags, fused parts or gaps): T1 sequence (P35398 with tags, fused parts or gaps)
From the text: In this assay, RORα is detected by a specific antibody bound to FRET donor Europium (Eu). The co-activator (CA) is biotin labeled. The biotin label is detecting by streptavidin, which encompasses the FRET acceptor allophycocyanin (APC) marker. If an agonist is bound to RORα, the NR is activated a CA binds to the NR. Accordingly, APC is brought into proximity of Eu, leading to a detecting FRET signal (left panel).
TR-FRET Assay Measuring RORalphaLBD Interaction with the LXXLL Peptide, SRC1−NR1+2
• 6×His-RORalpha: • source: Protein Production (Lab. Thomas Langer) treated with 3 mM LDS, stock solution at 1.5 mg/ml, storage at −20° C., pipetting at room temperature, corresponding to 47.5 μM (with MW 31.6 kD), Concentration in the assay=20 nM • SRC1−NR1+2: • source: JPT Peptide Technologies, stock solution at 250 μM, storage at −20° C., concentration in the assay=400 nM
• anti-6×His antibody: • source: Perkin Elmer #AD0110, stock solutions are at varying concentration with each batch, storage at −20° C., concentration in the assay=20 nM • strep-APC: • source: Perkin Elmer #AD0201, stock solutions are at varying concentration with each batch, storage at +4° C. after reconstitution, concentration in the assay=200 nM (based on streptavidin)
• Cholesterol sulfate: • source: SIGMA #C9523, stock solution in DMSO (30 mM), storage at −20° C.
• 50 mM Tris, 100 mM NaCl, 1 mM DTT, 0.1% Bovine Serum Albumin (add BSA fresh each day), adjust pH to 7.4
• Test plates: CORNING Costar #3639 (96 well half area)
All proteins, labels and compounds were diluted in the assay buffer just prior to assay setup. This assay was realised in 96 well half area plates. The final test volume was 20 μl. It is divided in 2 pipetting steps:
First, a mix containing 6×His-RORalphaLBD protein, BiotinSRC1−NR1+2 peptide, anti-6×His antibody and strep-APC was prepared on ice in the following concentrations: […]
The plates were incubated for 2 h in subdued light at room temperature and read on a Tecan ULTRA at room temperature with 340 nm excitation and 612 nm as Europium reference and 665 nm as APC FRET signal.

SMILES	EC50 [1] [µM]	co-factor recruitment (fluorescence ratios at 665 nm and 612 nm) [1]	EC50 [2] [µM]	binding of co-activator peptide SRC1−NR1+2 to RORα (increase in fluorescence intensity ratio) [2]
CC(C)CCC[C@@H](C)[C@H]1CC[C@H]2[C@@H]3CC=C4C[C@@H](OS(=O)(=O)O)CC[C@]4(C)[C@H]3CC[C@]12C [Cholesterol sulfate]	22	dose-dependent co-factor recruitment	~10	dose-dependently induce binding
CC(C)CCC[C@@H](C)[C@H]1CC[C@H]2[C@@H]3CC=C4C[C@@H](O)CC[C@]4(C)[C@H]3CC[C@]12C [Cholesterol]		dose-dependent co-factor recruitment		dose-dependently induce binding
